US20120270954A1, “METHODS FOR MAINTAINING EYE HEALTH AND AMELIORATING OPTHALMIC MALADIES IN CANINES” (priority 2009, published 2012)
Read-outs that look alike come from different tables or passages of the source.

Tests used:
[1] = type: in vivo; settings: for Antioxidant level in Cortical/Epithelial Layer (C) of dog lens / Antioxidant level in Nuclear Layer (N) of dog lens: lenses of seven dogs
Experimental: Eye samples were collected from seven (7) dogs. Eye balls were removed within 1 hour of death at necropsy, stored in individual containers at 4° C., and stored on wet ice for dissection within one day. The eyes were dissected to take out lenses. The lenses were separated into two layers: (1) an outer, soft cortical/epithelial layer and (2) an inner, hard nuclear layer. The layers were analyzed for carotenoids, vitamin C, and vitamin E following standard procedures given in Craft N E, Haitema T B, Garnett K M, Fitch K A, Dorey C K. Carotenoid, tocopherol, and retinol concentrations in elderly human brain. J Nutr. Health Aging 2004; 8:156-62.

[2] = previous studies, humans regularly consume β-carotene in their diets; cited from earlier work

Compound	Antioxidant level in Cortical/Epithelial Layer (C) of dog lens [1] [µg/g]	Antioxidant level in Nuclear Layer (N) of dog lens ([1]; nuclear layer) [µg/g]	detection or accumulation in human lenses [2]	β-Carotene concentration in lens layer ([1]; Dog 1, BEA, M/n, age 15.50, layer N) [ng/g]	β-Carotene concentration in lens layer ([1]; Dog 2, BEA, M/n, age 13.55, layer C) [ng/g]	β-Carotene concentration in lens layer ([1]; Dog 2, BEA, M/n, age 13.55, layer N) [ng/g]	β-Carotene concentration in lens layer ([1]; Dog 3, LAB, F/s, age 13.41, layer C) [ng/g]	β-Carotene concentration in lens layer ([1]; Dog 3, LAB, F/s, age 13.41, layer N) [ng/g]	β-Carotene concentration in lens layer ([1]; Dog 4, LAB, M/n, age 14.22, layer C) [ng/g]	β-Carotene concentration in lens layer ([1]; Dog 4, LAB, M/n, age 14.22, layer N) [ng/g]	β-Carotene concentration in lens layer ([1]; Dog 5, Man T, F/s, age 12.79, layer C) [ng/g]	β-Carotene concentration in lens layer ([1]; Dog 5, Man T, F/s, age 12.79, layer N) [ng/g]	β-Carotene concentration in lens layer ([1]; Dog 6, SIB HUSKY, M/n, age 6.10, layer C) [ng/g]	β-Carotene concentration in lens layer ([1]; Dog 6, SIB HUSKY, M/n, age 6.10, layer N) [ng/g]	β-Carotene concentration in lens layer ([1]; Dog 7, LAB, F/s, age 9.31, layer C) [ng/g]	β-Carotene concentration in lens layer ([1]; Dog 7, LAB, F/s, age 9.31, layer N) [ng/g]	cortical layer samples that accumulated β-carotene ([1]; dog lens, cortical layer, seven dogs)	nuclear layer samples that accumulated β-carotene ([1]; dog lens, nuclear layer, seven dogs)
O=C1O[C@H]([C@@H](O)CO)C(O)=C1O [Vitamin C, vitamin C]	112.38	23.59																
CC1=C(/C=C/C(C)=C/C=C/C(C)=C/C=C/C=C(C)/C=C/C=C(C)/C=C/C2=C(C)CCCC2(C)C)C(C)(C)CCC1 [β-Carotene, β-carotene]	0.00174	0.00274	not detected or accumulated in human lenses	0.79	1.06	0.60	0.73	1.26	0.71	0.79	1.35	1.60	4.26	8.17	2.35	5.99	six out of seven cortical layer samples accumulated	all nuclear layer samples accumulated
vitamin E	0.93	0.64																
